Data taken from US8771644B2, “Imaging probes” (Sanofi, priority 2007, dated 2014).

Target: Cath X (Homo sapiens, UniProt Q9UBR2)
Test: in vitro activity assay (fluorescence, substrate cleavage) with Cath X
Assay type: biochemical
Details: measurement performed at pH 5.5
Method: […] The substrates were solved in DMSO and added to enzyme solution with a final concentration of 50 μM.
Fluorescence was measured with an Tecan SAFIRE II spectrometer (excitation wavelength: 336 nm; emission wavelength: 490 nm; excitation band: 10.0 nm; emission band: 10.0 nm; amplification (manual): 90).

Cath X, sequence (Q9UBR2 62-303): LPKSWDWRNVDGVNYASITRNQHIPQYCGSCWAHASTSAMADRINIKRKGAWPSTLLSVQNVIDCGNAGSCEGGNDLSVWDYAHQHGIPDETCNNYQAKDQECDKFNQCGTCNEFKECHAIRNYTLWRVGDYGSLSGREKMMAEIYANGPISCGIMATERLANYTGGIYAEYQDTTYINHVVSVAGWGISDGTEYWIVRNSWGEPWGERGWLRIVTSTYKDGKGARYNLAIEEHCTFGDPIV

Compound `CN(C)c1ccc2c(c1)Oc1cc(N(C)C)ccc1C21OC(=O)c2cc(C(=O)NCC[C@H](NC(=O)[C@H](CC3CCCCC3)NC(=O)N3CCOCC3)C(=O)NCCNC(=O)c3ccc(-c4c5ccc(=O)cc-5oc5cc(O)ccc45)c(C(=O)O)c3)ccc21` [Example 10] has a Kcat of 287.4 s⁻¹ and a Vmax of 7997 nmol/s.
